Experimental findings from the supplement of paper PMC10790783 are described below.

The experiment has as its system MRC5-hT fibroblasts expressing HCMV UL38 (glucose-free medium). In words: rescue of cell number (AUC of dose-response) relative to untreated glucose-free control; higher = stronger protection from glucose-starvation-induced cell death. To be noted: glucose: 0 (glucose-free DMEM); 96 h; dose range 0.001-20, 10-point curve µM. The procedure:
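MRC5-hT fibroblasts stably expressing HCMV UL38 were seeded in 384-well plates, serum-starved for 24 h, switched to glucose-free DMEM, and pin-transferred with a metabolism-focused compound library as 10-point dose curves (1 nM to 20 µM; n=2). Nuclei were counted by Hoechst imaging 96 h after glucose withdrawal.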
For `O=C1N[C@@H]2[C@@H](O)[C@@H](O)[C@H](O)[C@@H](CO)N2C1=O` [Kifunensine], the “rescue of cell number” value was 123%.
For `NOCC[C@H](N)C(=O)O` [L_Canaline], the “rescue of cell number” value was 68%.
For `CC(C)=CCC1=C(O)C(=O)c2ccccc2C1=O` [Lapachol], the “rescue of cell number” value was determined as 57.7%.
On to `Cc1oncc1C(=O)Nc1ccc(C(F)(F)F)cc1` [Leflunomide], for which the “rescue of cell number” value was found to be 9.81%.
Consider `O=C(O)CSc1nnc(Br)n1-c1ccc(C2CC2)c2ccccc12` [Lesinurad], for which the “rescue of cell number” value is -28.1%.
With `CC(=O)NC[C@H]1CN(c2ccc(N3CCOCC3)c(F)c2)C(=O)O1` [Linezolid], the “rescue of cell number” value is -6.21%.
Turning to `Nc1nc2c(c(=O)[nH]1)C[C@@H](CCc1ccc(C(=O)N[C@@H](CCC(=O)O)C(=O)O)cc1)CN2` [Lometrexol], the “rescue of cell number” value is -30.2%.
In the case of `O=C(O)c1nn(Cc2ccc(Cl)cc2Cl)c2ccccc12` [Lonidamine], the “rescue of cell number” value was -29%.
Next, `CN1CCN(C(=O)c2ccc(-c3ccc4c(C=O)c(O)ccc4c3)s2)CC1` [MKC3946]: -14.6%.
With `COc1cccc2c(NCc3ccccc3)nc(-n3c(N)nc4ccccc43)nc12` [ML240], the “rescue of cell number” value was 57.1%.
For the compound `Cc1ccccc1C(C(=O)NC1CCCC1)N(C(=O)Cn1cnc2ccccc21)c1cccc(F)c1` (centres undefined) [ML309], the “rescue of cell number” value is 94.6%.
As for `COc1ccc(N(C(=O)CCl)C(C(=O)NCCc2ccccc2)c2cccs2)cc1Cl` (centres undefined) [ML-162], the “rescue of cell number” value came to 15.3%.
Next, `Cc1onc(C(=O)N2CCN(C(c3ccc(Cl)cc3)c3ccc(Cl)cc3)CC2)c1[N+](=O)[O-]` [ML-210]: -2.73%; `CC(=O)c1ccc2c(c1)Nc1ccccc1S2` [ML_171]: 23%.
`COc1cccc2c(NCc3ccccc3)nc(-n3c(N)nc4ccccc43)nc12` [ML_240]: the “rescue of cell number” value came out at 50.1%.
As to `Cc1cccc(CN2CCN(C(c3ccccc3)c3ccc(Cl)cc3)CC2)c1` (centres undefined) [Meclizine], the “rescue of cell number” value was 31.4%.
Next, `OC(c1cc(C(F)(F)F)nc2c(C(F)(F)F)cccc12)C1CCCCN1` (centres undefined) [Mefloquine]: -12%; `CC1=CC(=O)c2ccccc2C1=O` [Menadione]: 23.5%.
With `S=c1[nH]cnc2nc[nH]c12` [Mercaptopurine], the “rescue of cell number” value is -32.1%.
Next, `CN(C)C(=N)NC(=N)N` [Metformin]: -36.3%; `CN(Cc1cnc2nc(N)nc(N)c2n1)c1ccc(C(=O)N[C@@H](CCC(=O)O)C(=O)O)cc1` [Methotrexate]: -33.3%; `CC(C)(C(=O)c1cccnc1)c1cccnc1` [Metyrapone]: 87.6%.
For `OCCN1C[C@H](O)[C@@H](O)[C@H](O)[C@H]1CO` [Miglitol], the “rescue of cell number” value is -37.1%.
Take `CCCCN1C[C@H](O)[C@@H](O)[C@H](O)[C@H]1CO` [Miglustat]: the “rescue of cell number” value was found to be 5.72%.
`Clc1ccc(C(c2ccccc2Cl)C(Cl)Cl)cc1` (centres undefined) [Mitotane]: the “rescue of cell number” value amounted to 9.97%.
Next, `NC(=O)c1ncn([C@@H]2O[C@H](CO)[C@@H](O)[C@H]2O)c1O` [Mizoribine]: -26.6%; `COc1c(C)c2c(c(O)c1C/C=C(\C)CCC(=O)O)C(=O)OC2` [Mycophenolic_Acid]: 51.6%; `Cc1cc(C)nc(NC(=S)N2CCN(Cc3ccc(C(F)(F)F)cc3)CC2)c1` [NCT-503]: -9.82%.
As to `CCCCCCCCCCCCC/C=C/[C@@H](O)[C@H](CO)N(C)C` [N_N_Dimethylsphingosine], the “rescue of cell number” value was 18.1%.
For `O=C1CCCC(=O)C1C(=O)c1ccc(C(F)(F)F)cc1[N+](=O)[O-]` [Nitisinone], the “rescue of cell number” value came to 5%.
Next, `CN1Cc2c(N)cccc2C(c2ccccc2)C1` (centres undefined) [Nomifensine]: -5.61%; `Cc1ccccc1CN1C(=O)C2=C(CCN(Cc3ccccc3)C2)N2CCN=C12` [ONC-201]: 24%; `O=C(c1cc(Cc2n[nH]c(=O)c3ccccc23)ccc1F)N1CCN(C(=O)C2CC2)CC1` [Olaparib]: -15.1%.
Turning to `CCCCCCCC/C=C\CCCCCCCC(=O)NCCO` [Oleylethanolamide], the “rescue of cell number” value was -13.2%.
`CC[C@@H]1/C=C/C=C/C[C@H](C)[C@H](O)[C@](C)(O)C(=O)[C@H](C)[C@@H](O)[C@H](C)C(=O)[C@H](C)[C@@H](O)[C@H](C)/C=C/C(=O)O[C@H]2[C@@H](C)[C@@H](CC1)O[C@@]1(CC[C@@H](C)[C@@H](C[C@H](C)O)O1)[C@@H]2C` [Oligomycin_A]: the “rescue of cell number” value is 40.6%.
Then `CCCCCCCCCCC[C@@H](C[C@@H]1OC(=O)[C@H]1CCCCCC)OC(=O)[C@H](CC(C)C)NC=O` [Orlistat], with -10.4%; and `CNc1ccc(C(=O)Oc2cc(O/N=[N+](\[O-])N(C)C)c([N+](=O)[O-])cc2[N+](=O)[O-])cc1` [PABA_NO], with -16.1%; and `S=C=NCCc1ccccc1` [PEITC], with 37.8%.
`N#CSc1cc(SC#N)c(N)nc1N` [PR-619]: the “rescue of cell number” value was -9.68%.
With `CCC(C)SSc1ncc[nH]1` (centres undefined) [PX_12], the “rescue of cell number” value is -1.42%.
Take `C=C1C(=O)O[C@H]2[C@H]1CC/C(C)=C/CC[C@@]1(C)O[C@@H]21` [Parthenolide]: the “rescue of cell number” value came to 34.9%.
Then `OC[C@H]1O[C@@H](n2cnc3c2N=CNC[C@H]3O)C[C@@H]1O` [Pentostatin], with -17.8%; and `N=C(N)NC(=N)NCCc1ccccc1` [Phenformin], with -11.3%; and `COc1cc(O)c2c(c1)C(=O)c1cc(C)cc(O)c1C2=O` [Physcion], with -37.6%.
In the case of `CCc1ccc(CCOc2ccc(CC3SC(=O)NC3=O)cc2)nc1` (centres undefined) [Pioglitazone], the “rescue of cell number” value stood at 69%.
In the case of `COc1cc(/C=C/C(=O)N2CCC=CC2=O)cc(OC)c1OC` [Piperlongumine], the “rescue of cell number” value was 36.8%.
For `CC1=CC(=O)c2c(O)cccc2C1=O` [Plumbagin], the “rescue of cell number” value came out at 34.3%.
Turning to `O=C(NNc1ccccc1)c1ccncc1` [PluriSln_1], the “rescue of cell number” value came out at 41.4%.
With `CC[C@H](C)C(=O)O[C@H]1C[C@H](O)C=C2C=C[C@H](C)[C@H](CC[C@@H](O)C[C@@H](O)CC(=O)O)[C@H]21` [Pravastatin], the “rescue of cell number” value was -35.3%.
Consider `NC(=O)c1[nH]nc([C@@H]2O[C@H](CO)[C@@H](O)[C@H]2O)c1O` [Pyrazofurin], for which the “rescue of cell number” value was 26.5%.
In the case of `CCc1nc(N)nc(N)c1-c1ccc(Cl)cc1` [Pyrimethamine], the “rescue of cell number” value is -35.1%.
Consider `Cc1cc(/C=C/c2ccc3cc(N(C)C)ccc3[n+]2C)c(C)n1-c1ccccc1` [Pyrvinium_pamoate], for which the “rescue of cell number” value came out at 5.84%.
Next, `Cc1nc(=O)c2cc(CN(C)c3ccc(C(=O)N[C@@H](CCC(=O)O)C(=O)O)s3)ccc2[nH]1` [Raltitrexed]: -26.7%; `COc1ccccc1OCC(O)CN1CCN(CC(=O)Nc2c(C)cccc2C)CC1` (centres undefined) [Ranolazine]: -35.4%.
Then `Oc1ccc(/C=C/c2cc(O)cc(O)c2)cc1` [Resveratrol], with -35.9%.
As for `C=CCN(C)CCCCCCOc1ccc(C(=O)c2ccc(Br)cc2)c(F)c1` [Ro_48_8071], the “rescue of cell number” value was -2.22%.
Regarding `CN(CCOc1ccc(CC2SC(=O)NC2=O)cc1)c1ccccn1` (centres undefined) [Rosiglitazone], the “rescue of cell number” value worked out at 4.26%.
Next, `CC(C)c1nc(N(C)S(C)(=O)=O)nc(-c2ccc(F)cc2)c1/C=C/[C@@H](O)C[C@@H](O)CC(=O)O` [Rosuvastatin]: 45.3%.
Next, `C=C(C)[C@H]1Cc2c(ccc3c2O[C@@H]2COc4cc(OC)c(OC)cc4[C@@H]2C3=O)O1` [Rotenone]: 13.7%; `CC(=O)c1c(O)c(C)c(O)c(Cc2c(O)c3c(c(C(=O)/C=C/c4ccccc4)c2O)OC(C)(C)C=C3)c1O` [Rottlerin]: 24.6%.
Regarding `Oc1ccc(Nc2nc(-c3ccc(Cl)cc3)cs2)cc1` [SKI_II], the “rescue of cell number” value stood at 0.0721%.
Take `CC(C)(C)c1ccc(S(=O)(=O)NCc2ccc(C(=O)Nc3cccnc3)cc2)cc1` [STF_31]: the “rescue of cell number” value came out at 26.1%.
`CCCCC/C=C/C(=O)CCc1ccc(O)c(OC)c1` [Shogaol]: the “rescue of cell number” value was -6.33%.
Take `[N-]=[N+]=[N-]` [Sodium_Azide]: the “rescue of cell number” value was -38.1%.
On to `Fc1ccc(CNc2ncnc3ccc(F)cc23)cc1` [Spautin_1], for which the “rescue of cell number” value was 2.13%.
Turning to `CN(N=O)C(=O)N[C@@H](C=O)[C@@H](O)[C@H](O)[C@H](O)CO` [Streptozocin], the “rescue of cell number” value was found to be 33.4%.
Take `O=C(O)c1cc(/N=N/c2ccc(S(=O)(=O)Nc3ccccn3)cc2)ccc1O` [Sulfasalazine]: the “rescue of cell number” value stood at 87.4%.
Next, `C[S+]([O-])CCCCN=C=S` (centres undefined) [Sulforaphane]: -10.7%.
Turning to `CC1=C(CC(=O)O)c2cc(F)ccc2/C1=C\c1ccc([S+](C)[O-])cc1` (centres undefined) [Sulindac], the “rescue of cell number” value is -22.1%.
Then `O[C@H]1[C@H]2[C@H](O)CCCN2C[C@H]1O` [Swainsonine], with -31.9%; and `CNC(=O)c1ccc2cc([C@@]3(O)CCn4cncc43)ccc2c1` [TAK_700], with -25.3%; and `Cn1c2cc([S+](C)[O-])sc2c2cnn(Cc3cccc(N)c3)c(=O)c21` (centres undefined) [TEPP_46], with 92.3%.
In the case of `CCCCCCCCCCCCCCOc1ccc(C(=O)O)o1` [TOFA], the “rescue of cell number” value came out at 48.9%.
Next, `CC(=O)O[C@H]1C(=O)[C@@]2(C)[C@H]([C@H](OC(=O)c3ccccc3)[C@]3(O)C[C@H](OC(=O)[C@H](O)[C@@H](NC(=O)c4ccccc4)c4ccccc4)C(C)=C1C3(C)C)[C@]1(OC(C)=O)CO[C@@H]1C[C@@H]2O` [Taxol]: 21.5%.
